Our source for the IC50 values is patent US20260028365A1 (BIOGEN MA INC., priority 2022, published 2026).

Each structure is given as a SMILES string.

One test deals with JH2 domain of human Tyk2 (Homo sapiens (Human), UniProt P29597). The test is described as follows: JH2 Biochemical Assay (TR-FRET probe displacement). The format is binding. Particulars: TR-FRET probe displacement, JH2 domain.
A further test deals with Tyk2 (Homo sapiens (Human), UniProt P29597). The test is described as follows: pSTAT4 Cell Assay (MSD, NK92 cells). In kind it is cell-based.
Tyk2, sequence (P29597 whole entry): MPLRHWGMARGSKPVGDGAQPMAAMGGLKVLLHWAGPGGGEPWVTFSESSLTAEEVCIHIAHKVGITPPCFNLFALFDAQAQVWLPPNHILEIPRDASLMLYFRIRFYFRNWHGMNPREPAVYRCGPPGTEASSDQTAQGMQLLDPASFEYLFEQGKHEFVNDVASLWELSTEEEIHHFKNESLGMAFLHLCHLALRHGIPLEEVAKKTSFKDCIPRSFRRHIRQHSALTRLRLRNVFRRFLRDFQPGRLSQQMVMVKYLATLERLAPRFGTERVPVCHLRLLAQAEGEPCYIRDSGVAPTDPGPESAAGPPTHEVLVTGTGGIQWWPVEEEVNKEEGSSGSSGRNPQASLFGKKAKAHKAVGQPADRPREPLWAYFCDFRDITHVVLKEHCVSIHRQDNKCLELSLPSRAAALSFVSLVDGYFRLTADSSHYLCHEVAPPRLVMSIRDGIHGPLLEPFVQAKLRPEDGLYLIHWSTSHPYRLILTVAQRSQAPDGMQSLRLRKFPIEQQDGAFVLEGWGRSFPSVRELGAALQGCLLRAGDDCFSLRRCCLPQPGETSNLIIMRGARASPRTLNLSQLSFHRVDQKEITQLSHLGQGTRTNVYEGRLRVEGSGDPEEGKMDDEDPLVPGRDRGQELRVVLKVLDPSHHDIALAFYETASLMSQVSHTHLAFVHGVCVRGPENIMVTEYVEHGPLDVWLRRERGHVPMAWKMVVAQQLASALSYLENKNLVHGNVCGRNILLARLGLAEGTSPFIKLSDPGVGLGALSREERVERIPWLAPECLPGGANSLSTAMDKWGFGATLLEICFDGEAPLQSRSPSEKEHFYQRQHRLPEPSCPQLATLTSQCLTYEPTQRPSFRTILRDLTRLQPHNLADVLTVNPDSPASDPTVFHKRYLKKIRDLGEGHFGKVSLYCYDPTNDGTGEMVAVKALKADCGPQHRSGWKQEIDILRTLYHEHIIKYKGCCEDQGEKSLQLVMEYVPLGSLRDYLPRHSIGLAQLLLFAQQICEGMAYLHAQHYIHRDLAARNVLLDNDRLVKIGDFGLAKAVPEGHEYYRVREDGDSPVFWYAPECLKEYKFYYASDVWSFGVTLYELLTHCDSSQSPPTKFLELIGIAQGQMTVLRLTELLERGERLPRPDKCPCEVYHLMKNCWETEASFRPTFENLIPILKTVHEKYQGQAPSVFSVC

JH2 domain of human Tyk2, sequence (P29597 575-876): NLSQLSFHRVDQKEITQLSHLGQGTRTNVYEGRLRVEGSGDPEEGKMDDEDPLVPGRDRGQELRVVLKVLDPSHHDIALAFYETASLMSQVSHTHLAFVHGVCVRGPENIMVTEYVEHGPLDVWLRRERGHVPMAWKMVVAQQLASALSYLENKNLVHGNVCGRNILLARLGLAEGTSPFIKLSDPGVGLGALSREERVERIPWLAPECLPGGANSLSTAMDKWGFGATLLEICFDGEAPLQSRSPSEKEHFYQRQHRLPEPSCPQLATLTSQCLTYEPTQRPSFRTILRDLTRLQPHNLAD

Usually IC50 stands for the concentration at which inhibition is half-maximal. A low value points to inhibition by little substance. For `CCc1cc(Nc2cc(NC(C)=O)ncc2F)nc(C(C)(F)F)n1` [Example 816, N-(4-((2-(1,1-difluoroethyl)-6-ethylpyrimidin-4-yl)amino)-5-fluoropyridin-2-yl)acetamide], the half-inhibitory concentration (IC50) at JH2 domain of human Tyk2 is ≤ 0.01 µM; on Tyk2, 0.1 to 1 µM.

`CC(=O)Nc1cc(Nc2cc(C(C)C)nc(C(C)(F)F)n2)c(F)cn1` [Example 817, N-(4-((2-(1,1-difluoroethyl)-6-isopropylpyrimidin-4-yl)amino)-5-fluoropyridin-2-yl)acetamide]: the figures for the IC50 on JH2 domain of human Tyk2 and against Tyk2 were 0.01 to 0.1 µM and ≥ 1 µM, respectively.

As to `CC(=O)Nc1cc(Nc2cc(OC3CC3)nc(C(C)(F)F)n2)c(F)cn1` [Example 818, N-(4-((6-cyclopropoxy-2-(1,1-difluoroethyl)pyrimidin-4-yl)amino)-5-fluoropyridin-2-yl)acetamide], the 50% inhibitory concentration (IC50) was ≤ 0.01 µM on JH2 domain of human Tyk2 and 0.1 to 1 µM on Tyk2.

`CC(=O)Nc1cc(Nc2cc(-c3cnn(C(C)C)c3)nc(C(C)(F)F)n2)c(F)cn1` [Example 819, N-(4-((2-(1,1-difluoroethyl)-6-(1-isopropyl-1H-pyrazol-4-yl)pyrimidin-4-yl)amino)-5-fluoropyridin-2-yl)acetamide]: the IC50 at JH2 domain of human Tyk2 is 0.01 to 0.1 µM; at Tyk2, ≥ 1 µM.

`CCc1cc(Nc2cc(NC(C)=O)ncc2-c2ccc3c(n2)OCC(C)(C)O3)nc(C(C)(F)F)n1` [Example 821, N-(4-((2-(1,1-difluoroethyl)-6-ethylpyrimidin-4-yl)amino)-5-(2,2-dimethyl-2,3-dihydro-[1,4]dioxino[2,3-b]pyridin-6-yl)pyridin-2-yl)acetamide]: the IC50 on JH2 domain of human Tyk2 and on Tyk2 was ≤ 0.01 µM throughout.

On to `CC(=O)Nc1cc(Nc2cc(C(C)C)nc(C(C)(F)F)n2)c(-c2ccc3c(n2)OCC(C)(C)O3)cn1` [Example 822, N-(4-((2-(1,1-difluoroethyl)-6-isopropylpyrimidin-4-yl)amino)-5-(2,2-dimethyl-2,3-dihydro-[1,4]dioxino[2,3-b]pyridin-6-yl)pyridin-2-yl)acetamide], for which the half-maximal inhibitory concentration (IC50) on JH2 domain of human Tyk2 and against Tyk2 was ≤ 0.01 µM throughout.

In the case of `CCc1cc(Nc2cc(NC(C)=O)ncc2-c2cnccn2)nc(C(C)(F)F)n1` [Example 823, N-(4-((2-(1,1-difluoroethyl)-6-ethylpyrimidin-4-yl)amino)-5-(pyrazin-2-yl)pyridin-2-yl)acetamide], the IC50 at JH2 domain of human Tyk2 is ≤ 0.01 µM; against Tyk2 it was 0.01 to 0.1 µM.

For the molecule `CC(=O)Nc1cc(Nc2cc(OC3CC3)nc(C(C)(F)F)n2)c(-c2cnccn2)cn1` [Example 824, N-(4-((6-cyclopropoxy-2-(1,1-difluoroethyl)pyrimidin-4-yl)amino)-5-(pyrazin-2-yl)pyridin-2-yl)acetamide], the IC50 at JH2 domain of human Tyk2 is ≤ 0.01 µM; on Tyk2, 0.01 to 0.1 µM.

As for `CC(=O)Nc1cc(Nc2cc(C)nc(C(C)(F)F)n2)c(-c2ccc(C(F)F)cn2)cn1` [Example 827, N-(4′-((2-(1,1-difluoroethyl)-6-methylpyrimidin-4-yl)amino)-5-(difluoromethyl)-[2,3′-bipyridin]-6′-yl)acetamide], the IC50 on JH2 domain of human Tyk2 and against Tyk2 was ≤ 0.01 µM in each case.

Consider `COc1cnc(-c2cnc(NC(C)=O)cc2Nc2ccnc(C(C)(F)F)n2)cn1` [Example 828, N-(4-((2-(1,1-difluoroethyl)pyrimidin-4-yl)amino)-5-(5-methoxypyrazin-2-yl)pyridin-2-yl)acetamide], for which the figures for the 50% inhibitory concentration (IC50) at JH2 domain of human Tyk2 and on Tyk2 were ≤ 0.01 µM and 0.01 to 0.1 µM, respectively.

On to `CCc1cc(Nc2cc(NC(C)=O)ncc2-c2cnc(OC)cn2)nc(C(C)(F)F)n1` [Example 829, N-(4-((2-(1,1-difluoroethyl)-6-ethylpyrimidin-4-yl)amino)-5-(5-methoxypyrazin-2-yl)pyridin-2-yl)acetamide], for which the figures for the IC50 at JH2 domain of human Tyk2 and against Tyk2 were ≤ 0.01 µM and 0.01 to 0.1 µM, respectively.

For `COc1cnc(-c2cnc(NC(C)=O)cc2Nc2cc(OC3CC3)nc(C(C)(F)F)n2)cn1` [Example 830, N-(4-((6-cyclopropoxy-2-(1,1-difluoroethyl)pyrimidin-4-yl)amino)-5-(5-methoxypyrazin-2-yl)pyridin-2-yl)acetamide], the IC50 on JH2 domain of human Tyk2 was ≤ 0.01 µM; against Tyk2, 0.01 to 0.1 µM.

On to `CCc1cc(Nc2cc(NC(C)=O)ncc2-c2ccc(=O)n(C)n2)nc(C(C)(F)F)n1` [Example 831, N-(4-((2-(1,1-difluoroethyl)-6-ethylpyrimidin-4-yl)amino)-5-(1-methyl-6-oxo-1,6-dihydropyridazin-3-yl)pyridin-2-yl)acetamide], for which the IC50 on JH2 domain of human Tyk2 and on Tyk2 was ≤ 0.01 µM throughout.

Regarding `COc1ccc(-c2cnc(NC(C)=O)cc2Nc2cc(C(C)C)nc(C(C)(F)F)n2)nn1` [Example 832, N-(4-((2-(1,1-difluoroethyl)-6-isopropylpyrimidin-4-yl)amino)-5-(6-methoxypyridazin-3-yl)pyridin-2-yl)acetamide], the IC50 at JH2 domain of human Tyk2 and against Tyk2 was ≤ 0.01 µM each time.

Turning to `COc1ccc(-c2cnc(NC(C)=O)cc2Nc2cc(OC3CC3)nc(C(C)(F)F)n2)nn1` [Example 833, N-(4-((6-cyclopropoxy-2-(1,1-difluoroethyl)pyrimidin-4-yl)amino)-5-(6-methoxypyridazin-3-yl)pyridin-2-yl)acetamide], the IC50 at JH2 domain of human Tyk2 and against Tyk2 was ≤ 0.01 µM in each case.

Regarding `CC(=O)Nc1cc(Nc2cc(C)nc(C(C)(F)F)n2)c(-c2ccnc(C(C)(F)F)n2)cn1` [Example 837, N-(4-((2-(1,1-difluoroethyl)-6-methylpyrimidin-4-yl)amino)-5-(2-(1,1-difluoroethyl)pyrimidin-4-yl)pyridin-2-yl)acetamide], the half-maximal inhibitory concentration (IC50) on JH2 domain of human Tyk2 and at Tyk2 was ≤ 0.01 µM each time.

`CC(=O)Nc1cc(Nc2cc(C)nc(C(C)(F)F)n2)c(-c2cnc(C#N)cn2)cn1` [Example 838, N-(5-(5-cyanopyrazin-2-yl)-4-((2-(1,1-difluoroethyl)-6-methylpyrimidin-4-yl)amino)pyridin-2-yl)acetamide]: the IC50 was ≤ 0.01 µM at JH2 domain of human Tyk2 and 0.01 to 0.1 µM against Tyk2.

Take `CCc1cc(Nc2cc(NC(C)=O)ncc2-c2ccc(C(C)(C)O)cn2)nc(C(C)(F)F)n1` [Example 839, N-(4′-((2-(1,1-difluoroethyl)-6-ethylpyrimidin-4-yl)amino)-5-(2-hydroxypropan-2-yl)-[2,3′-bipyridin]-6′-yl)acetamide]: the IC50 on JH2 domain of human Tyk2 and at Tyk2 was ≤ 0.01 µM in each case.

In the case of `CC(=O)Nc1cc(Nc2ccnc(C(C)(F)F)n2)c(-c2ccc(N(C)C)nn2)cn1` [Example 841, N-(4-((2-(1,1-difluoroethyl)pyrimidin-4-yl)amino)-5-(6-(dimethylamino)pyridazin-3-yl)pyridin-2-yl)acetamide], the IC50 on JH2 domain of human Tyk2 and against Tyk2 was ≤ 0.01 µM each time.

Consider `CC(=O)Nc1cc(Nc2ccnc(C(C)(F)F)n2)c(-c2cnc(N(C)C)cn2)cn1` [Example 842, N-(4-((2-(1,1-difluoroethyl)pyrimidin-4-yl)amino)-5-(5-(dimethylamino)pyrazin-2-yl)pyridin-2-yl)acetamide], for which the IC50 was ≤ 0.01 µM at JH2 domain of human Tyk2 and 0.01 to 0.1 µM against Tyk2.

In the case of `CC(=O)Nc1cc(Nc2ccnc(C(C)(F)F)n2)c(-c2cnc(N3CCCC3)cn2)cn1` [Example 843, N-(4-((2-(1,1-difluoroethyl)pyrimidin-4-yl)amino)-5-(5-(pyrrolidin-1-yl)pyrazin-2-yl)pyridin-2-yl)acetamide], the IC50 is ≤ 0.01 µM at JH2 domain of human Tyk2 and 0.01 to 0.1 µM against Tyk2.

Regarding `CC(=O)Nc1cc(Nc2ccnc(C(C)(F)F)n2)c(-c2cnc(N3CCOCC3)cn2)cn1` [Example 844, N-(4-((2-(1,1-difluoroethyl)pyrimidin-4-yl)amino)-5-(5-morpholinopyrazin-2-yl)pyridin-2-yl)acetamide], the IC50 was ≤ 0.01 µM on JH2 domain of human Tyk2 and 0.01 to 0.1 µM against Tyk2.

Consider `CC(=O)Nc1cc(Nc2ccnc(C(C)(F)F)n2)c(-c2ccc(N3CCCC3)nn2)cn1` [Example 845, N-(4-((2-(1,1-difluoroethyl)pyrimidin-4-yl)amino)-5-(6-(pyrrolidin-1-yl)pyridazin-3-yl)pyridin-2-yl)acetamide], for which the IC50 on JH2 domain of human Tyk2 and against Tyk2 was ≤ 0.01 µM throughout.

In the case of `CCc1cc(Nc2cc(NC(C)=O)ncc2-c2ccc(COC)cn2)nc(C(C)(F)F)n1` [Example 846, N-(4′-((2-(1,1-difluoroethyl)-6-ethylpyrimidin-4-yl)amino)-5-(methoxymethyl)-[2,3′-bipyridin]-6′-yl)acetamide], the IC50 at JH2 domain of human Tyk2 and against Tyk2 was ≤ 0.01 µM each time.

On to `CCc1cc(Nc2cc(NC(C)=O)ncc2-c2ncc(OC(F)F)cn2)nc(C(C)(F)F)n1` [Example 848, N-(4-((2-(1,1-difluoroethyl)-6-ethylpyrimidin-4-yl)amino)-5-(5-(difluoromethoxy)pyrimidin-2-yl)pyridin-2-yl)acetamide], for which the IC50 at JH2 domain of human Tyk2 and on Tyk2 was ≤ 0.01 µM each time.

For the molecule `CC(=O)Nc1cc(Nc2ccnc(C(C)(F)F)n2)c(-c2cnc(C#N)cn2)cn1` [Example 850, N-(5-(5-cyanopyrazin-2-yl)-4-((2-(1,1-difluoroethyl)pyrimidin-4-yl)amino)pyridin-2-yl)acetamide], the values for the IC50 on JH2 domain of human Tyk2 and against Tyk2 were ≤ 0.01 µM and 0.1 to 1 µM, respectively.

`CC(=O)Nc1cc(Nc2ccnc(C(C)(F)F)n2)c(-c2ccc(C(C)(C)O)cn2)cn1` [Example 852, N-(4′-((2-(1,1-difluoroethyl)pyrimidin-4-yl)amino)-5-(2-hydroxypropan-2-yl)-[2,3′-bipyridin]-6′-yl)acetamide]: the IC50 on JH2 domain of human Tyk2 and against Tyk2 was ≤ 0.01 µM in each case.

Take `CCc1cc(Nc2cc(NC(C)=O)ncc2-c2cnc(C(C)(C)O)cn2)nc(C(C)(F)F)n1` [Example 855, N-(4-((2-(1,1-difluoroethyl)-6-ethylpyrimidin-4-yl)amino)-5-(5-(2-hydroxypropan-2-yl)pyrazin-2-yl)pyridin-2-yl)acetamide]: the IC50 on JH2 domain of human Tyk2 and against Tyk2 was ≤ 0.01 µM in each case.

Consider `CCc1cc(Nc2cc(NC(C)=O)ncc2-c2cnc(N(C)C)cn2)nc(C(C)(F)F)n1` [Example 856, N-(4-((2-(1,1-difluoroethyl)-6-ethylpyrimidin-4-yl)amino)-5-(5-(dimethylamino)pyrazin-2-yl)pyridin-2-yl)acetamide], for which the IC50 on JH2 domain of human Tyk2 is ≤ 0.01 µM; at Tyk2 it was 0.01 to 0.1 µM.
